Assay results from US20050250677A1, “Glycopeptide antibiotic derivatives” (priority 2002, published 2005).
Read-outs that look alike come from different tables or passages of the source.

Columns and labels:
[1] = system: HIV-2(ROD); assay: Inhibition of HIV-2 (ROD)-induced cytopathicity (giant cell formation) in CEM cells; format: cell-based; conditions: read-out: EC50 HIV-2 (concentration required to inhibit HIV-induced giant cell formation by 50%); HIV-2, CEM cell cultures
Experimental: (§1) A variety of glycopeptide antibiotic derivatives of vancomycin, eremomycin and teicoplanin including their aglycon derivatives were evaluated for their inhibitory activity against HIV-1 (IIIB) and HIV-2(ROD) in CEM cell cultures.

[2] = system: human lymphocyte CEM; assay: Cytostatic activity assay, CEM cells; format: cell-based; conditions: read-out: IC50 CEM (compound concentration required to inhibit tumor cell proliferation by 50%)
[3] = system: HIV-2 (RF); conditions: read-out: EC50 CEM/0 HIV-2 (RF); CEM/0 cells
Experimental: (§2) Inhibition of HIV-1 (IIIB, HE, HN) and HIV-2(ROD, EHO, RF)-induced cytopathicity in CEM or C8166 or Molt4/C8 cells was measured in microtiter 96-well plates containing ˜3×10^5 CEM cells/ml, infected with 100 CCID50 of HIV per ml and containing appropriate dilutions of the test compounds. After 4 to 5 days of incubation at 37° C. in a CO2-controlled humidified atmosphere, CEM, C8166 or Molt4/C8 giant (syncytium) cell formation was examined microscopically.

[4] = system: HIV-2 (EHO); conditions: read-out: EC50 CEM/0 HIV-2 (EHO); CEM/0 cells
Experimental: as §2

[5] = system: mutant HIV-1 strain Lys-103-Asn; assay: Anti-HIV-1 activity against mutant HIV-1 strain Lys-103-Asn in CEM cultures; format: cell-based
[6] = system: HEL cells; conditions: read-out: CC50 (HEL)
[7] = system: murine leukemia L1210; assay: Cytostatic activity assay, L1210 cells; format: cell-based; conditions: read-out: IC50 L1210 (compound concentration required to inhibit tumor cell proliferation by 50%)
[8] = system: HIV-1 (MN); assay: Inhibition of HIV-1 (MN)-induced cytopathicity in CEM/0 cells; format: cell-based
[9] = system: HIV-1 (HE); assay: Inhibition of HIV-1 (HE)-induced cytopathicity in CEM/0 cells; format: cell-based
[10] = system: VZV (wild-type strains); assay: Anti-VZV assay (wild-type strains): virus-induced cytopathicity in HEL cell cultures; format: cell-based, varicella-zoster virus; conditions: for EC50: HEL cell cultures
[11] = system: HIV-1(HE); assay: Inhibition of HIV-1 (HE)-induced cytopathicity in MOLT4/C8 cells; format: cell-based
[12] = system: HIV-1 (IIIB); assay: Inhibition of HIV-1 (IIIB)-induced cytopathicity (giant cell formation) in CEM cells; format: cell-based
Experimental: as §1

[13] = system: human lymphocyte Molt4/clone 8; assay: Cytostatic activity assay, Molt4/clone 8 cells; format: cell-based; conditions: read-out: IC50 Molt4/C8 (compound concentration required to inhibit tumor cell proliferation by 50%)
[14] = system: HEL cells
[15] = system: HSV-1 (KOS); assay: Anti-HSV-1 assay: virus-induced cytopathicity in HEL cell cultures
[16] = system: HSV-2 (G); assay: Anti-HSV-2 assay: virus-induced cytopathicity in HEL cell cultures
[17] = system: mutant HIV-1 strain Tyr-181-Cys; assay: Anti-HIV-1 activity against mutant HIV-1 strain Tyr-181-Cys in CEM cultures; format: cell-based
[18] = VZV strain OKA, read-out: EC50 VZV (OKA)
[19] = CEM cultures, wild type in mutant panel, read-out: EC50 HIV-1 IIIB
[20] = CEM/0 cells, read-out: EC50 CEM/0 HIV-1 (IIIB)
[21] = read-out: EC50 HIV-1 (concentration required to inhibit HIV-induced giant cell formation by 50%), HIV-1, CEM cell cultures
[22] = read-out: EC50 HSV-1 (KOS), HEL cell cultures
[23] = read-out: EC50 HSV-2 (G), HEL cell cultures
[24] = VZV strain YS, read-out: EC50 VZV (YS)

Row | SMILES | EC50 [1] [µM] | IC50 [2] [µM] | EC50 [3] [µM] | EC50 [4] [µM] | EC50 [5] [µM] | CC50 ([6]; HEL cells, anti-VZV table) [µM] | IC50 [7] [µM] | EC50 [8] [µM] | EC50 [9] [µM] | activity against VZV [10] | EC50 [10, 18] [µM] | EC50 [11] [µM] | EC50 [12, 19] [µM] | EC50 [12, 20] [µM] | EC50 [12, 21] [µM] | IC50 [13] [µM] | MTC (HEL) ([14]; anti-VZV table) | CC50 ([6]; HEL cell proliferation) [µM] | EC50 [10, 24] [µM] | MTC (HEL) [14] | further results
1 | CNC(CC(C)C)C(=O)NC1C(=O)NC(CC(N)=O)C(=O)NC2C(=O)NC3C(=O)NC(C(=O)NC(C(=O)O)c4cc(O)c(CN5CCN(Cc6ccc(-c7ccccc7)cc6)CC5)c(O)c4-c4cc3ccc4O)C(O)c3ccc(cc3)Oc3cc2cc(c3O)Oc2ccc(cc2Cl)C1O (stereo not shown) [Compound 6] | 12 ± 3.5 | > 500 | 16 ± 5.7 | 50 | 11 ± 1.4 | > 50 | 250 ± 39 | 20 | 40 | pronounced activity | 4.2 | 22 ± 2.9 | 5.5 ± 0.7 | 5.5 ± 0.7 | 5.5 ± 0.7 | > 500 | ≧20-200 μM | – | – | – | –
2 | CCCCCCCCCC(=O)N1CCN(C(=O)C2NC(=O)C3NC(=O)C(NC(=O)C4NC(=O)C5NC(=O)C(Cc6ccc(c(Cl)c6)Oc6cc4cc(c6O)Oc4ccc(cc4Cl)C3O)NC(=O)C(N)c3ccc(O)c(c3)Oc3cc(O)cc5c3)c3ccc(O)c(c3)-c3c(O)cc(O)cc32)CC1 (stereo not shown) [Compound 40] | 4.5 ± 2.1 | 44 ± 0.42 | – | – | – | > 50 | 38.7 ± 3.4 | – | – | – | 0.29 | – | – | – | 1.5 ± 0.7 | 32.3 | ≧5-20 μM | > 50 | 0.21 | ≧5-20 μM | EC50 [15, 22]: 9.6 µM; EC50 [16, 23]: 9.6 µM
3 | CCCCc1ccc(CNCC(=O)N2CCN(C(=O)C3NC(=O)C4NC(=O)C(NC(=O)C5NC(=O)C6NC(=O)C(Cc7ccc(c(Cl)c7)Oc7cc5cc(c7O)Oc5ccc(cc5Cl)C4O)NC(=O)C(N)c4ccc(O)c(c4)Oc4cc(O)cc6c4)c4ccc(O)c(c4)-c4c(O)cc(O)cc43)CC2)cc1 (stereo not shown) [Compound 46] | 7 ± 4.2 | > 100 | 10 | 35 ± 7.1 | 17 ± 4.2 | > 50 | > 100 | 9 ± 1.4 | 35 ± 7.1 | – | 0.81 | 6.5 ± 4.3 | 4 | 4 | 4 | > 100 | 20 to 80 µM | – | – | – | EC50 [17]: 8 µM
4 | CC(C)CC(C(=O)NC1C(=O)NC(CC(N)=O)C(=O)NC2C(=O)NC3C(=O)NC(C(=O)NC(C(=O)O)c4cc(O)c(CN5CCN(Cc6ccc(-c7ccccc7)cc6)CC5)c(O)c4-c4cc3ccc4O)C(O)c3ccc(cc3)Oc3cc2cc(c3O)Oc2ccc(cc2Cl)C1O)N(C)C(=O)OC(C)(C)C (stereo not shown) [Compound 98] | – | – | – | – | – | > 50 | – | – | – | pronounced activity | 2.3 | – | – | – | – | – | ≧20-200 μM | > 50 | 1.3 | ≧20-200 μM | EC50 ([15]; read-out: EC50 HSV-1): 24 µM; EC50 ([16]; read-out: EC50 HSV-2): 24 µM
5 | CN(Cc1ccc(Cl)cc1)Cc1c(O)cc2c(c1O)-c1cc(ccc1O)C1NC(=O)C3NC(=O)C4NC(=O)C(Cc5ccc(c(Cl)c5)Oc5cc3cc(c5O)Oc3ccc(cc3Cl)C(O)C(NC1=O)C(=O)NC2C(=O)O)NC(=O)C(N)c1ccc(O)c(c1)Oc1cc(O)cc4c1 (stereo not shown) [Compound 115] | – | – | – | – | – | 50 | – | – | – | – | > 5 | – | – | – | – | – | ≧20-200 μM | 50 | 8.9 | ≧20-200 μM | EC50 [15, 22]: 80 µM; EC50 [16, 23]: > 16 µM
